Experiments:
Type in all cases: cell-based, human
CD34+ from cytapheresis = assay: Amplification of erythroid progenitors from CD34+ HSCs derived from cytapheresis (cell count); conditions: cell count after culture
Protocol: (§1) IMDM (Biochrom), supplemented with transferrin (330 μg/mL), insulin (10 μg/mL), 5% AB serum pool (EFS) and heparin (3 U/mL). From day 0 to day 7, the medium was supplemented with IL-3 (5 ng/mL), SCF (100 ng/mL) and EPO (2 IU/mL). From day 7 until the end of the amplification of erythroblastic progenitors, the medium was supplemented with SCF (100 ng/mL) and EPO (2 IU/mL).
HSCs are obtained after magnetic separation using CD34+ beads according to the protocol provided by Milenyi (see CD34 MicroBead Kit, human, from Miltenyi Biotec).
On day 0 the cells were seeded at a concentration of 10,000 cells/mL, on day 4 the cells were diluted 1/5 in new medium, on day 7 the cells were washed and cultured at 100,000 cells/mL in new medium. On day 11 the cells were diluted to 100,000 cells/mL and seeded in a new medium. On day 14 the cells were reseeded at 300,000 cells/mL in a new medium. On day 18 the cells were diluted to 0.5 million/mL. From day 21 onwards, the cells were systematically returned to 1 million/mL on each maintenance day (i.e., twice per week).
Protocol 1: From day 0 to day 11 the cells are cultured in the basal medium. On day 11 the medium used is supplemented with 253.9 μM DMOG. […]
The cells are diluted to a tenth in trypan blue solution, allowing cell mortality to be assessed if necessary.

CD34+ HTERT BMI1 LMO2 = assay: Amplification of erythroid progenitors from engineered cytapheresis HSCs overexpressing HTERT, BMI1 and LMO2 (cell count); conditions: cell count on day 65
Protocol: as §1
(§2) HSCs are obtained from cytapheresis after magnetic separation using Miltenyi CD34+ beads.
(§3) On day 0 the cells were seeded at a concentration of 100,000 cells/mL, for two successive infections with the HTERT BMI1 lentiviral supernatant and the BCL-XL retroviral supernatant or the HTERT BMI1 lentiviral supernatant and the LMO2 lentiviral supernatant; on day 3 the cells were washed 3 times and reseeded at a concentration of 10,000 cells/mL, on day 4 the cells were diluted to 1/5 in new medium. On day 7 the cells were washed and cultured at 100,000 cells/mL in new medium. On day 11 the cells were diluted to 100,000 cells/mL and seeded in a new medium. On day 14 the cells were reseeded to 300,000 cells/mL in a new medium. On day 18 the cells were diluted to 0.5 million/mL. From day 21 onwards, the cells were systematically reset to 1 million/mL each day of maintenance (i.e., twice per week).
(§4) Protocol 1: From day 0 to day 11 the cells are cultured in the basal medium. […]

CD34+ HTERT BMI1 BCL-XL = assay: Amplification of erythroid progenitors from engineered cytapheresis HSCs overexpressing HTERT, BMI1 and BCL-XL (cell count); conditions: cell count on day 65
Protocol: as §1, §2, §3, §4

Q: `C[C@@H]1C[C@H]2[C@@H]3CCC4=CC(=O)C=C[C@]4(C)[C@@]3(F)[C@@H](O)C[C@]2(C)[C@@]1(O)C(=O)CO` [Protocol 3, dexamethasone] was tested. Which “amplification of erythroid progenitors/CD34+ from cytapheresis on day 58” value (CD34+ from cytapheresis) did it give?
A: 2.47 · 10^7

Q: What about the “amplification of erythroid progenitors/CD34+ (CD34+ HTERT BMI1 LMO2)” value (CD34+ HTERT BMI1 LMO2) of the same compound?
A: 5.12 · 10^6

Q: And the “amplification of erythroid progenitors/CD34+ (CD34+ HTERT BMI1 BCL-XL)” value (CD34+ HTERT BMI1 BCL-XL)?
A: 5.76 · 10^5

— patent US20200370015A1, “METHOD FOR PRODUCING ERYTHROID PROGENITOR CELLS” (ETABLISSEMENT FRANCAIS DU SANG, priority 2017, published 2020)
